In patent US10561667B2, “Orbit azine-fumarate, hydrate, crystal form and preparation method therefor” (SHENZHEN ZHENXING MEDICAL TECHNOLOGY CO., LTD., priority 2015, dated 2020):

Key:
[1] = tested on: human neuroglioma cell BT-325; assay: MTT proliferation inhibition, BT-325; type: cell-based; details: BT-325, MTT, 72 h
Source text: (§1) The tumor cells included, but were not limited to the following cells: human colorectal cancer cell SW480, human gastric adenocarcinoma cell MGC-803, human […], human lymphoma cell U937, human liver cancer cell Hep-G2, human cervical cancer cell Hela, human neuroglioma cell BT-325, human medulloblastoma D341 Med, and human gallbladder cancer cell GBC-SD.
(§2) Experimental method: cells in exponential growth phase were collected, and seeded to a 96-well cell culture plate, at a final concentration of 5×10^3 cells/90 μl/well. […] After the treatment for 72 h, 10 μl MTT solution (5 mg/ml, Sigma) was added to each well, and the cells were further cultured for 4 h. The culture medium was discarded, 100 μl DMSO was added to each well, and dissolution was carried out under rotation on a shaking table for 10 min.

Hygroscopicity = type: physicochemical
Protocol: (§3) 3.2 Change in Appearance and Hygroscopicity (10 Days)
Hygroscopicity was measured by reference to methods in Appendix X IX J Laboratory Procedure on Determination of Hygroscopicity of Drugs in Pharmacopoeia of The People's Republic of China (2010).

[2] = tested on: human colorectal cancer cell SW480; assay: MTT proliferation inhibition, SW480; type: cell-based
Source text: as §1, §2

[3] = tested on: human cervical cancer cell Hela; assay: MTT proliferation inhibition, Hela; type: cell-based; details: 72 h
Source text: as §1, §2

[4] = Stability of crystal forms in sodium phosphate/hydrochloric acid buffer pH=6.8 (37° C.); type: physicochemical; details: for Purity: pH = 6.8 buffer, 37° C.
Protocol: 1. Test on Stability of Crystal Forms in Different Media
1.1 Stability of Different Crystal Forms in Sodium Phosphate/Hydrochloric Acid Buffer pH=6.8 (37° C.)

[5] = tested on: human medulloblastoma D341 Med; assay: MTT proliferation inhibition, D341 Med; type: cell-based; details: 72 h
Source text: as §1, §2

[6] = Affect factor test: related substance and transformation in crystal form (10 days); type: physicochemical; details: for Purity, High temperature (60° C.) / Purity, High humidity (RH = 92.5%) / Purity, Illumination (ultraviolet lamp): 10 days; for Crystal form: after 10 days at high temperature, high humidity or illumination; for Purity of raw material: before the affect factor test (baseline); for Stability of purity: high temperature, high humidity, or illumination, 10 days later
Source text: (§4) 3. Affect Factor Test of Different Crystal Forms
3.1 Related Substance and Transformation in Crystal Form (10 Days)

[7] = tested on: human gallbladder cancer cell GBC-SD; assay: MTT proliferation inhibition, GBC-SD; type: cell-based; details: 72 h
Source text: as §1, §2

human lymphoma cell U937 = assay: MTT proliferation inhibition, U937; type: cell-based
Source text: as §1, §2

[8] = tested on: human liver cancer cell Hep-G2; assay: MTT proliferation inhibition, Hep-G2; type: cell-based
Source text: as §1, §2

[9] = tested on: human small cell lung adenocarcinoma cell A549; assay: MTT proliferation inhibition, A549; type: cell-based
Source text: as §1, §2

[10] = tested on: human gastric adenocarcinoma cell MGC-803; assay: MTT proliferation inhibition, MGC-803; type: cell-based; details: MGC-803, MTT
Source text: as §1, §2

[11] = Affect factor test: change in appearance (10 days); type: physicochemical
Source text: as §4, §3

[12] = Stability of crystal forms in hydrochloric acid solution pH=1.2 (37° C.); type: physicochemical; details: for Purity: pH = 1.2 hydrochloric acid solution, 37° C.; for Change of purity: stirred in hydrochloric acid medium pH=1.2 for 24 h
Protocol: 1.2 Stability of Different Crystal Forms in Hydrochloric Acid Solution with pH=1.2 (37° C.)

[13] = 72 h, listed as an amorphous form
[14] = 0 h (baseline), monofumarate monohydrate

C=CCc1cccc(/C=N/NC(=O)CN2CCCN(Cc3ccccc3)CC2)c1O [Amorphous form, orbit azine monofumarate]
IC50 ([1]; listed as an amorphous form): 2.52 µM
Hygroscopicity, weight increase/% (Hygroscopicity; 2014 Nov. 17 to 2014 Nov. 24): 118.620%
Hygroscopicity (Hygroscopicity; moisture absorption): significant weight increase
IC50 [2, 13]: 1.78 µM
IC50 ([3]; listed as an amorphous form): 5.65 µM
Purity ([4]; 0 h (baseline)): 97.980%
Purity ([4]; 4 h): 87.266%
Purity ([4]; 24 h): 85.026%
IC50 ([5]; listed as an amorphous form): 0.447 µM
Purity, High temperature (60° C.) [6]: 95.989%
Purity, High humidity (RH = 92.5%) [6]: 97.537%
Crystal form [6]: converted to Form B under the condition of high humidity
Purity of raw material [6]: 97.980%
Purity, Illumination (ultraviolet lamp) [6]: 96.880%
IC50 ([7]; listed as an amorphous form): 6.58 µM
IC50 (human lymphoma cell U937; [13]): 0.418 µM
IC50 [8, 13]: 8.38 µM
IC50 [9, 13]: 2.97 µM
IC50 [10, 13]: 1.6 µM

C=CCc1cccc(/C=N/NC(=O)CN2CCCN(Cc3ccccc3)CC2)c1O [Form A, orbit azine monofumarate]
IC50 [1]: 2.88 µM
Water absorbability (Hygroscopicity; product of Example 1): no water absorbability
IC50 ([2]; 72 h): 1.77 µM
IC50 [3]: 5.68 µM
Purity ([4]; 0 h (baseline)): 98.069%
Purity ([4]; 4 h): 87.153%
Purity ([4]; 24 h): 84.864%
IC50 [5]: 0.433 µM
Purity, High temperature (60° C.) [6]: 97.665%
Purity, High humidity (RH = 92.5%) [6]: 97.699%
Crystal form [6]: Form A
Purity of raw material [6]: 98.096%
Stability of purity [6]: relatively stable
Purity, Illumination (ultraviolet lamp) [6]: 97.775%
IC50 [7]: 6.48 µM
IC50 (human lymphoma cell U937; 72 h): 0.425 µM
IC50 ([8]; 72 h): 8.41 µM
IC50 ([9]; 72 h): 2.99 µM
Appearance ([11]; High humidity): white solid
Appearance ([11]; High temperature): white solid
Appearance ([11]; Illumination): white solid
IC50 ([10]; 72 h): 1.36 µM

C=CCc1cccc(/C=N/NC(=O)CN2CCCN(Cc3ccccc3)CC2)c1O [Form B, orbit azine monofumarate monohydrate]
IC50 ([1]; monofumarate monohydrate): 2.31 µM
Extent of degradation compared ([12]; hydrochloric acid medium pH=1.2): degraded to a slightly less extent
Purity [12, 14]: 98.413%
Purity ([12]; 24 h, monofumarate monohydrate): 79.443%
Purity ([12]; 48 h, monofumarate monohydrate): 78.122%
Change of purity [12]: decreased greatly
IC50 ([2]; 72 h, monofumarate monohydrate): 1.98 µM
IC50 ([3]; monofumarate monohydrate): 5.75 µM
Degradation in the medium with pH=6.8 ([4]; pH = 6.8, 37° C.): degraded to a slightly less extent
Purity [4, 14]: 98.413%
Purity ([4]; 4 h, monofumarate monohydrate): 93.112%
Purity ([4]; 24 h, monofumarate monohydrate): 90.266%
IC50 ([5]; monofumarate monohydrate): 0.43 µM
Purity, High temperature (60° C.) ([6]; monofumarate monohydrate): 97.809%
Purity, High humidity (RH = 92.5%) ([6]; monofumarate monohydrate): 98.176%
Crystal form ([6]; monofumarate monohydrate): Form B
Purity of raw material ([6]; monofumarate monohydrate): 98.413%
Stability of purity [6]: relatively stable
Purity, Illumination (ultraviolet lamp) ([6]; monofumarate monohydrate): 98.116%
IC50 ([7]; monofumarate monohydrate): 6.16 µM
IC50 (human lymphoma cell U937; 72 h, monofumarate monohydrate): 0.495 µM
IC50 ([8]; 72 h, monofumarate monohydrate): 8.32 µM
IC50 ([9]; 72 h, monofumarate monohydrate): 2.9 µM
Appearance ([11]; High humidity, monofumarate monohydrate): white solid
Appearance ([11]; High temperature, monofumarate monohydrate): white solid
Appearance ([11]; Illumination, monofumarate monohydrate): white solid
IC50 ([10]; 72 h, monofumarate monohydrate): 1.39 µM

C=CCc1cccc(/C=N/NC(=O)CN2CCCN(Cc3ccccc3)CC2)c1O [Form C, orbit azine difumarate]
IC50 [1]: 2.65 µM
Purity ([12]; 0 h (baseline)): 97.865%
Purity ([12]; 24 h): 72.042%
Purity ([12]; 48 h): 71.017%
Change of purity [12]: decreased greatly
IC50 ([2]; 72 h): 1.93 µM
IC50 [3]: 5.49 µM
Purity ([4]; 0 h (baseline)): 94.584%
Purity ([4]; 4 h): 83.292%
Purity ([4]; 24 h): 82.680%
IC50 [5]: 0.411 µM
Purity, High temperature (60° C.) [6]: 97.244%
Purity, High humidity (RH = 92.5%) [6]: 97.733%
Crystal form [6]: Form C
Purity of raw material [6]: 97.865%
Purity, Illumination (ultraviolet lamp) [6]: 95.696%
IC50 [7]: 6.37 µM
IC50 (human lymphoma cell U937; 72 h): 0.391 µM
IC50 ([8]; 72 h): 8.21 µM
IC50 ([9]; 72 h): 3.07 µM
Change of color [11]: turned slightly yellow
Appearance ([11]; High humidity): white solid
Appearance ([11]; High temperature): white solid
IC50 ([10]; 72 h): 1.28 µM

C=CCc1cccc(/C=N/NC(=O)CN2CCCN(Cc3ccccc3)CC2)c1O [Form D, orbit azine difumarate]
IC50 ([1]; Homo sapiens): 2.71 µM
IC50 ([2]; Homo sapiens, SW480, 72 h): 1.67 µM
IC50 ([3]; Homo sapiens, HeLa): 5.17 µM
Purity ([4]; 0 h (baseline)): 97.999%
Purity ([4]; 4 h): 85.418%
Purity ([4]; 24 h): 84.552%
IC50 ([5]; Homo sapiens): 0.484 µM
IC50 ([7]; Homo sapiens): 6.95 µM
IC50 (human lymphoma cell U937; Homo sapiens, U-937, 72 h): 0.414 µM
IC50 ([8]; Homo sapiens, HepG2, 72 h): 8.18 µM
IC50 ([9]; Homo sapiens, A549, 72 h): 2.87 µM
IC50 ([10]; Homo sapiens, MGC-803, 72 h): 1.45 µM
